Laboratory results published in article PMC11940194, “Synthesis, Antiproliferative Activity, and ADME Profiling of Novel Racemic and Optically Pure Aryl-Substituted Purines and Purine Bioisosteres” (Biomolecules, 2025).

How the values were obtained:
[1] = test system: breast adenocarcinoma (MCF7) cells; assay: Antiproliferative MTT assay, MCF-7; format: cell-based, human; settings: Homo sapiens, MCF7; 72 h incubation, MTT; mean ± SD
Procedure, shortened: (§1)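 Seeding density followed doubling time: 3000 cells per well for the cancer lines, 5000 for normal fibroblasts. Test substances, freshly diluted from 0.01 to 100 µM, were incubated with the cells for 72 h before MTT measurement of growth rate. IC50 values came from linear regression of dose–response curves.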

[2] = test system: pancreatic ductal adenocarcinoma (CFPAC-1) cells; assay: Antiproliferative MTT assay, CFPAC-1; format: cell-based, human; settings: Homo sapiens, CFPAC-1, 72 h, 72 h incubation, MTT; mean ± SD
Procedure, shortened: as §1

[3] = test system: colorectal carcinoma (HT-29) cells; assay: Antiproliferative MTT assay, HT-29; format: cell-based, human; settings: for IC50: Homo sapiens, HT-29, 72 h, 72 h incubation, MTT, mean ± SD; for SI (HT-29): SI = [IC50 HFF]/[IC50 HT-29]
Procedure, shortened: as §1

[4] = test system: hepatocellular carcinoma (HepG2) cells; assay: Antiproliferative MTT assay, HepG2; format: cell-based, human; settings: for IC50: Homo sapiens, HepG2, 72 h, 72 h incubation, MTT, mean ± SD; for SI (HepG2): SI = [IC50 HFF]/[IC50 HepG2]
Procedure, shortened: as §1

[5] = test system: normal skin fibroblasts (HFF-1); assay: Cytotoxicity MTT assay, normal skin fibroblasts; format: cell-based, human; settings: Homo sapiens, HFF-1, 72 h, 72 h incubation, mean ± SD
Procedure, shortened: as §1

[6] = test system: MCF-7, CFPAC-1, HT-29, HepG2 tumor cell lines and HFF-1 fibroblasts; assay: Antiproliferative activity, whole cell line panel; format: cell-based, human; settings: tested cell lines
Method: The human ATCC tumor cell lines breast adenocarcinoma (MCF7), colorectal carcinoma (HT-29), pancreatic ductal adenocarcinoma (CFPAC-1), hepatocellular carcinoma (HepG2), and normal skin fibroblasts (HFF) derived from ATCC (American Type Culture Collection) were cultured in Dulbecco’s Modified Eagle Medium (DMEM) or Minimum Essential Medium (MEM) supplemented with 10% fetal bovine serum (FBS), 2 mM L-glutamine, 100 U/mL penicillin, and 100 µg/mL streptomycin (Lonza, Basel, Switzerland) in a humidified atmosphere with 5% CO2 at 37 °C. For the experiment, carcinoma cell lines and normal human cell lines were seeded in 96-well microtiter plates at a density of 3000 cells per well and 5000 cells per well, respectively, depending on the doubling time of the specific cell line. The test substances were then added at fivefold, tenfold dilutions (0.01 to 100 µM), freshly prepared in the growth medium on the day of testing, and incubated for a further 72 h. After 72 h of incubation, the growth rate of the cells was determined using the MTT assay according to the manufacturer’s guidelines. […] The IC50 values were calculated from the dose–response curves using linear regression analysis. The experiment was performed in tetraplicates in two individual experiments.
Newly synthesized compounds were evaluated for their cytotoxic activity in vitro against four human cancer cell lines, including human breast adenocarcinoma (MCF-7), ductal pancreatic adenocarcinoma (CFPAC-1), colorectal carcinoma (HT-29), and hepatocellular carcinoma (HepG2), as well as on non-cancerous skin fibroblasts (HFF-1), to check for non-specific toxicity. Furthermore, 5-Fluorouracil (5-FU) was used as a reference drug. The results are expressed as 50% inhibitory concentration (IC50) values and are listed in Table 2, Table 3, Table 4 and Table 5.

[7] = test system: MDCKII-MDR1 cells (P-glycoprotein); assay: MDCKII-MDR1 permeability assay; format: in vitro ADME, canine cells with over-expressed human MDR1 gene; settings: permeability class
Method: (§2) MDCKII-hMDR1 cells were obtained from Solvo Biotechnology, Hungary. DMEM, fetal bovine serum, Glutamax-100, Antibiotic/Antimycotic, DMSO, Dulbecco’s phosphate-buffered saline, and MEM Non-essential amino acids were purchased from Sigma (St. Louis, MO, USA). Bi-directional permeability and P-glycoprotein substrate assessments were carried out in Madin-Darby canine epithelial cells with the over-expressed human MDR1 gene (MDCKII-MDR1), coding for P-glycoprotein. Experimental procedures, as well as cell culture conditions, were the same as previously described. Briefly, compounds (10 µM, 1% DMSO v/v) in duplicate were incubated at 37 °C for 60 min with cell monolayer on 24-well Millicell inserts (Millipore, Burlington, MA, USA) with and without the P-glycoprotein inhibitor Elacridar (2 µM, International Laboratory, San Francisco, CA, USA). The inhibition of P-glycoprotein was verified by amprenavir (Moravek Biochemicals Inc, Brea, CA, USA) and monolayer integrity using Lucifer yellow (Sigma, St. Louis, MO, USA). LC-MS/MS measured compound concentrations and Lucifer yellow was measured on an Infinite F500 (Tecan, Männedorf, CH, Switzerland) using excitation of 485 nm and emission of 530 nm.
(§3) All samples were quantified using tandem mass spectrometry coupled to liquid chromatography. Samples were analyzed on a Sciex API4000 Triple Quadrupole Mass Spectrometer (Sciex, Division of MDS Inc., Toronto, Canada) coupled to a Shimadzu Nexera X2 UHPLC frontend (Kyoto, Japan). Samples were injected onto a UHPLC column (HALO2 C18, 2.1 × 20 mm, 2 µm or Luna Omega 1.6 µm Polar C18 100A, 30 × 2.1 mm) and eluted with a gradient at 50 °C. The mobile phase was composed of acetonitrile/water mixture (9/1, with 0.1% formic acid) and 0.1% formic acid in deionized water. The flow rate was 0.7 mL/min under gradient conditions, leading to a total run time of 1.5–2 min. A positive ion mode with turbo spray, an ion source temperature of 550 °C, and a dwell time of 150 ms were utilized for mass spectrometric detection. Quantitation was performed using multiple reaction monitoring (MRM) at the specific transitions for each compound.

[8] = test system: P-glycoprotein (human MDR1); assay: MDCKII-MDR1 permeability assay; format: in vitro ADME, canine cells with over-expressed human MDR1 gene; settings: dog, MDCK-MDR1; for Papp A→B at 60 min, 10 µM / Papp B→A at 60 min, 10 µM: 37 °C; for efflux ratio at 60 min, 10 µM: <2 no efflux, >2 active efflux
Method: as §2, §3

[9] = Metabolic stability in mouse liver microsomes; format: in vitro ADME; settings: mouse liver microsomes
Text: Mouse liver microsomes were obtained from Corning Life Sciences (Corning, NY, USA). DMSO, nicotinamide adenine dinucleotide phosphate (NADP), glucose-6-phosphate, glucose-6-phosphate dehydrogenase, magnesium chloride, propranolol, caffeine, diclofenac, and phosphate-buffered saline (PBS) were purchased from Sigma (St. Louis, MO, USA). Acetonitrile (ACN) and methanol (MeOH) were obtained from Merck (Darmstadt, Germany). Testosterone was purchased from Steraloids (Newport, RI, USA). Metabolic stability was assessed in mouse liver microsomes. Compounds (final concentration of 1 µM, 0.03% DMSO v/v) were incubated in duplicate in phosphate buffer (50 mM, pH 7.4) at 37 °C together with mouse liver microsomes in the absence and presence of the NADPH cofactor (0.5 mM nicotinamide adenine dinucleotide phosphate, 5 mM glucose-6-phosphate, 1.5 U/mL glucose-6-phosphate dehydrogenase, and 0.5 mM magnesium chloride). Incubation and sampling were performed on a Freedom EVO 200 (Tecan, Männedorf, CH, Switzerland) at […], 10, 20, 30, 45, and 60 min. The reaction was quenched using 3 volumes of a mixture of ACN/MeOH (2:1) containing internal standard (diclofenac), centrifuged, and the supernatants were analyzed using LC-MS/MS. The metabolic activity of the microsomes was verified via simultaneous analysis of several controls including testosterone, propranolol, and caffeine. The in vitro half-life (t1/2) was calculated using GraphPad Prism (v9.0 software) non-linear regression of % of parent compound remaining versus time. In vitro clearance, expressed as µL/min/mg, was estimated from the in vitro half-life (t1/2) and normalized for the protein amount in the incubation mixture, assuming 52.5 mg of protein per gram of liver and using constant values for mouse liver weight/body weight [87.5 g/kg] and mouse liver blood flow (LBF) [131 mL/min/kg].
as §3

SMILES	IC50 [1]	IC50 [2]	IC50 [3]	IC50 [4]	IC50 [5]	antiproliferative activity (in words) [6]	SI (HT-29) [3]	SI (HepG2) [4]	Permeability [7]	Papp A→B at 60 min, 10 µM [8]	Papp B→A at 60 min, 10 µM [8]	efflux ratio at 60 min, 10 µM [8]	Clearance Class. [9]
OCC(c1ccccc1)n1cc(Cn2ccc3ccccc32)nn1 (stereo not drawn) [Compound 26a, 1-((1-(2-Hydroxy-1-phenylethyl)-1H-1,2,3-triazol-4-yl)methyl)-1H-indole]	> 100 µM	> 100 µM	> 100 µM	> 100 µM	> 100 µM	deprived of any activity	–	–	–	–	–	–	–
OC(Cn1cc(Cn2ccc3ccccc32)nn1)c1ccccc1 (stereo not drawn) [Compound 26b, 1-((1-(2-Hydroxy-2-phenylethyl)-1H-1,2,3-triazol-4-yl)methyl)-1H-indole]	> 100 µM	> 100 µM	> 100 µM	> 100 µM	> 100 µM	deprived of any activity	–	–	–	–	–	–	–
OCC(c1ccccc1)n1cc(Cn2cnc3ccccc32)nn1 (stereo not drawn) [Compound 31a, 1-((1-(2-Hydroxy-1-phenylethyl)-1H-1,2,3-triazol-4-yl)methyl)-1H-benzimidazole]	> 100 µM	> 100 µM	> 100 µM	> 100 µM	> 100 µM	deprived of any activity	–	–	–	–	–	–	–
OC(Cn1cc(Cn2cnc3ccccc32)nn1)c1ccccc1 (stereo not drawn) [Compound 31b, 1-((1-(2-Hydroxy-2-phenylethyl)-1H-1,2,3-triazol-4-yl)methyl)-1H-benzimidazole]	91 ± 7.2 µM	> 100 µM	> 100 µM	> 100 µM	> 100 µM	deprived of any activity	–	–	–	–	–	–	–
OCC(c1ccccc1)n1cc(Cn2cnc3c(Cl)nccc32)nn1 (stereo not drawn) [Compound 46a, 4-Chloro-1-((1-(2-hydroxy-1-phenylethyl)-1H-1,2,3-triazol-4-yl)methyl)-1H-imidazo[4,5-c]pyridine]	> 100 µM	> 100 µM	> 100 µM	> 100 µM	> 100 µM	deprived of any activity	–	–	–	–	–	–	–
OC(Cn1cc(Cn2cnc3c(Cl)nccc32)nn1)c1ccccc1 (stereo not drawn) [Compound 46b, 4-Chloro-1-((1-(2-hydroxy-2-phenylethyl)-1H-1,2,3-triazol-4-yl)methyl)-1H-imidazo[4,5-c]pyridine]	> 100 µM	> 100 µM	> 100 µM	> 100 µM	> 100 µM	deprived of any activity	–	–	–	–	–	–	–
O[C@@H](Cn1cc(Cn2cnc3c(Cl)ncnc32)nn1)c1ccc(C(F)(F)F)cc1 [Compound (R)-40b, (R)-6-Chloro-9-((1-(2-hydroxy-2-(4-(trifluoromethyl)phenyl)ethyl)-1H-1,2,3-triazol-4-yl)methyl)-9H-purine]	36 ± 23.1 µM	16 ± 2.6 µM	6 ± 0.6 µM	8 ± 0.6 µM	6 ± 4.8 µM	–	1.0	0.7	MODERATE	2.2 ×10⁻⁶ cm/s	45.2 ×10⁻⁶ cm/s	21	LOW (<30% low)
O[C@H](Cn1cc(Cn2cnc3c(Cl)ncnc32)nn1)c1ccc(C(F)(F)F)cc1 [Compound (S)-40b, (S)-6-Chloro-9-((1-(2-hydroxy-2-(4-(trifluoromethyl)phenyl)ethyl)-1H-1,2,3-triazol-4-yl)methyl)-9H-purine]	10 ± 0.4 µM	19 ± 2.4 µM	5 ± 0.1 µM	7 ± 1.5 µM	12 ± 3.4 µM	–	2.4	1.7	MODERATE	2.2 ×10⁻⁶ cm/s	42.9 ×10⁻⁶ cm/s	19.5	LOW (<30% low)
